Assay results from patent US10993957B2 (NuCana plc, priority 2011, dated 2021).
Like-named read-outs stand apart in the source and are kept apart here.

Experiments:
[1] = test system: L1210/TK^−; assay: Cytostatic assay, thymidine kinase-deficient L1210/TK^− cells; assay type: cell-based, murine
[2] = test system: L1210.Hyor; assay: Cytostatic assay, Mycoplasma hyorhinis-infected L1210 cells; settings: for % Retention: CC50 L1210 × 100 ÷ CC50 L1210/Hyor
Source text: Murine leukaemia L1210/0 and human T-lymphocyte CEM/0 cells were obtained from the American Type Culture Collection (ATCC) (Rockville, Md.). Human glioblastoma U87 cells were kindly provided by Dr. E. Menue (Institut Pasteur, Paris, France). […] S. Eriksson (currently at Uppsala University, Uppsala, Sweden) and Prof A. Karlsson (Karolinska Institute, Stockholm, Sweden). […] All cells were maintained in Dulbecco's modified Eagle's medium (DMEM) (Invitrogen, Carlsbad, Calif.) with 10% foetal bovine serum (FBS) (Biochrom AG, Berlin, Germany), 10 mM Hepes and 1 mM Sodium Pyruvate (Invitrogen). Cells were grown at 37° C. in a humidified incubator with a gas phase of 5% CO2.
Monolayer cells (U87 and U87.Hyor) were seeded in 48-well microtiter plates (Nunc™, Roskilde, Denmark) at 10,000 cells/well. After 24 hours, an equal volume of fresh medium containing the test compounds was added. On day 5, cells were trypsinized and counted in a Coulter counter (Analis, Suarlée, Belgium). Suspension cells (L1210/0, L1210/TK^−, L1210.Hyor, CEM/0, CEM/TK^−) were seeded in 96-well microtiter plates (Nunc™) at 60,000 cells/well in the presence of a given amount of the test compounds. The cells were allowed to proliferate for 48 h (L1210) or 72 hours (CEM) and were then counted in a Coulter counter.
Samples were also assayed for their % retention of activity in mycoplasma infected cells.
The L1210/0 cell cultures were infected with the mycoplasma species M. hyorhinis (cells designated: L1210.Hyor).

[3] = test system: HeLa/TK^−; assay: Cytostatic assay, HeLa/TK^− cells; assay type: cell-based; settings: for IC50: read-out: IC50 HeLa/TK^−; for CC50: read-out: CC50 HeLa/TK^−
Source text: (§1) The cell lines employed were L1210/0 (a leukemia cell line), FM3A/0 (a breast cancer cell line), Cem/0 (an acute lymphoblastic leukemia cell line) and HeLa (a cervical cell line).

[4] = test system: L1210/0; assay: Cytostatic assay, L1210/0 cells; assay type: cell-based, murine
Source text: as §1

[5] = test system: Cem/0; assay: Cytostatic assay, CEM/0 cells; assay type: cell-based, human; settings: for IC50: read-out: IC50 Cem/0; for CC50: read-out: CC50 Cem/0
Source text: as §1

[6] = test system: HeLa; assay: Cytostatic assay, HeLa cells; assay type: cell-based; settings: for IC50: read-out: IC50 HeLa; for CC50: read-out: CC50 HeLa
Source text: as §1

[7] = test system: Cem/TK^−; assay: Cytostatic assay, thymidine kinase-deficient CEM/TK^− cells; assay type: cell-based, human; settings: for IC50: read-out: IC50 Cem/TK^−; for CC50: read-out: CC50 Cem/TK^−
[8] = Table 6, read-out: IC50 L1210/TK^−
[9] = read-out: IC50 L1210.Hyor, Table 7
[10] = Table 6, read-out: IC50 L1210/0
[11] = Table 7, read-out: IC50 L1210/0
[12] = Mus musculus, L1210, Table 1, read-out: CC50 L1210/TK^−
[13] = Mus musculus, L1210, Table 6, read-out: IC50 L1210/TK^−
[14] = Mus musculus, L1210, read-out: CC50 L1210/Hyor
[15] = Mus musculus, L1210, read-out: IC50 L1210.Hyor
[16] = Mus musculus, L1210/0, Table 1, read-out: CC50 L1210/0
[17] = Mus musculus, L1210/0, Table 2, mycoplasma negative cells, read-out: CC50 L1210
[18] = Mus musculus, L1210/0, Table 6, read-out: IC50 L1210/0
[19] = Mus musculus, L1210/0, Table 7, read-out: IC50 L1210/0
[20] = Homo sapiens, CCRF-CEM, Table 1
[21] = Homo sapiens, CCRF-CEM, Table 6
[22] = Homo sapiens, CEM-TK(-), Table 1
[23] = Homo sapiens, CEM-TK(-), Table 6

Row | Compound | IC50 [1, 8] [nM] | IC50(L1210.Hyor)/IC50(L1210/0) ([2]; Table 7) | IC50 [2, 9] [nM] | IC50 ([3]; Table 6) [nM] | IC50 [4, 10] [nM] | IC50 [4, 11] [nM] | IC50 ([5]; Table 6) [nM] | IC50 ([6]; Table 6) [nM] | IC50 ([7]; Table 6) [nM] | % Retention [2] [%] | CC50 [1, 12] [nM] | IC50 [1, 13] [nM] | CC50 [2, 14] [nM] | IC50 [2, 15] [nM] | CC50 ([3]; Homo sapiens, HeLa, Table 1) [nM] | IC50 ([3]; Homo sapiens, HeLa, Table 6) [nM] | CC50 [4, 16] [nM] | CC50 [4, 17] [nM] | IC50 [4, 18] [nM] | IC50 [4, 19] [nM] | also measured
1 | CCOC(=O)C(NP(=O)(OCC1OC(n2cc(F)c(=O)[nH]c2=O)CC1O)Oc1ccccc1)C(C)C (stereo not drawn) [Ph Et Val] | 42000 ± 2000 | 22 | 4400 ± 1100 | 27000 ± 7000 | 160 ± 50 | 200 ± 33 | 1000 ± 100 | 1200 ± 300 | > 250000 |  |  |  |  |  |  |  |  |  |  |  | 
2 | CC(C)C(NP(=O)(OCC1OC(n2cc(F)c(=O)[nH]c2=O)CC1O)Oc1cccc2ccccc12)C(=O)OC1CCCCC1 (stereo not drawn) [CPF 576] | 35000 ± 8000 | 1.08 | 1290 ± 290 | 27000 ± 6000 | 1100 ± 500 | 1200 ± 170 | 800 ± 280 | 670 ± 30 | 46000 ± 14000 | 51 |  |  |  |  |  |  |  |  |  |  | CC50 ([2]; read-out: CC50 L1210/Hyor, Table 2, mycoplasma positive cells): 2730 nM; CC50 ([4]; Table 2, mycoplasma negative cells, read-out: CC50 L1210): 1400 nM
3 | C[C@H](NP(=O)(OC[C@H]1O[C@@H](n2cc(F)c(=O)[nH]c2=O)CC1O)Oc1cccc2ccccc12)C(=O)OCCC(C)(C)C (stereo partly drawn) [CPF 585, 5-Fluoro-2′-deoxyuridine-5′-O-[1-naphthyl(3,3-dimethyl-1-butoxy-L-alaninyl)] phosphate] |  | 2.7 |  |  |  |  |  |  |  | 41 | 62 ± 9 | 62 ± 9 | 51 | 32 ± 8.8 | 1300 ± 900 | 1300 ± 900 | 16 ± 6 | 21 | 16 ± 6 | 12 ± 1.8 | CC50 [5, 20]: 53 ± 21 nM; IC50 [5, 21]: 53 ± 21 nM; CC50 ([6]; Homo sapiens, HeLa, Table 1): 78 ± 18 nM; IC50 ([6]; Homo sapiens, HeLa, Table 6): 78 ± 18 nM; CC50 [7, 22]: 190 ± 40 nM; IC50 [7, 23]: 190 ± 40 nM
4 | C[C@H](NP(=O)(OC[C@H]1O[C@@H](n2cc(F)c(=O)[nH]c2=O)CC1O)Oc1cccc2ccccc12)C(=O)OCC(C)(C)C (stereo partly drawn) [CPF 588, 5-Fluoro-2′-deoxyuridine-5′-O-[1-naphthyl-(2,2-dimethylpropoxy-L-alaninyl)] phosphate] |  | 1.9 |  |  |  |  |  |  |  | 61 | 1200 ± 700 | 1200 ± 700 | 390 | 180 ± 69 | 32000 ± 26000 | 32000 ± 26000 | 270 ± 110 | 237 | 270 ± 110 | 93 ± 33 | CC50 [5, 20]: 490 ± 50 nM; IC50 [5, 21]: 490 ± 50 nM; CC50 ([6]; Homo sapiens, HeLa, Table 1): 700 ± 110 nM; IC50 ([6]; Homo sapiens, HeLa, Table 6): 700 ± 110 nM; CC50 [7, 22]: 6700 ± 1000 nM; IC50 [7, 23]: 6700 ± 1000 nM
5 | CC(C)CC(NP(=O)(OCC1OC(n2cc(F)c(=O)[nH]c2=O)CC1O)Oc1cccc2ccccc12)C(=O)OCc1ccccc1 (stereo not drawn) [Nap Bn Leu] | 1500 ± 600 | 1.7 | 48 ± 20 | 9400 ± 1400 | 28 ± 4 | 29 ± 2.1 | 130 | 80 ± 22 | 30000 ± 6000 |  |  |  |  |  |  |  |  |  |  |  | 
6 | CCC(C)C(NP(=O)(OCC1OC(n2cc(F)c(=O)[nH]c2=O)CC1O)Oc1ccccc1)C(=O)OCc1ccccc1 (mixture of isomers) [Ph Bn Ile] | 1100 ± 100 | 2.2 | 2200 ± 31 | 25000 ± 11000 | 76 ± 22 | 980 ± 390 | 1000 ± 100 | 710 ± 150 | 30000 ± 10000 |  |  |  |  |  |  |  |  |  |  |  | 
7 | C[C@H](NP(=O)(OC[C@H]1O[C@@H](n2cc(F)c(=O)[nH]c2=O)CC1O)Oc1cccc2ccccc12)C(=O)OC1CCC1 (stereo partly drawn) [CPF 578, 5-Fluoro-2′-deoxyuridine-5′-O-[1-naphthyl-(cyclobutoxy-L-alaninyl)]phosphate] |  | 2.2 |  |  |  |  |  |  |  | 31 | 88 ± 38 | 88 ± 38 | 48 | 24 ± 0.14 | 1500 ± 600 | 1500 ± 600 | 14 ± 3 | 15 | 14 ± 3 | 11 ± 1.4 | CC50 [5, 20]: 73 ± 18 nM; IC50 [5, 21]: 73 ± 18 nM; CC50 ([6]; Homo sapiens, HeLa, Table 1): 69 ± 3 nM; IC50 ([6]; Homo sapiens, HeLa, Table 6): 69 ± 3 nM; CC50 [7, 22]: 1500 ± 300 nM; IC50 [7, 23]: 1500 ± 300 nM
8 | CC(C)CC(NP(=O)(OCC1OC(n2cc(F)c(=O)[nH]c2=O)CC1O)Oc1ccccc1)C(=O)OCc1ccccc1 (stereo not drawn) [Ph Bn Leu] | 2000 ± 300 | 3.2 | 170 ± 47 | 5600 ± 300 | 44 ± 25 | 54 ± 2.1 | 240 ± 40 | 67 ± 42 | 16000 ± 1000 |  |  |  |  |  |  |  |  |  |  |  | 
9 | O=C(OCc1ccccc1)C1CCCN1P(=O)(OC[C@H]1O[C@@H](n2cc(F)c(=O)[nH]c2=O)CC1O)Oc1ccccc1 (stereo partly drawn) [CPF 583, 5-Fluoro-2′-deoxyuridine-5′-O-[phenyl(benzoxy-L-prolinyl)] phosphate] |  | 51 |  |  |  |  |  |  |  | 3.3 |  |  | 11900 | 18000 ± 710 |  |  |  |  |  |  | CC50 ([1]; Mus musculus, L1210, read-out: CC50 L1210/TK^−): 31000 ± 5000 nM; IC50 ([1]; Mus musculus, L1210, read-out: IC50 L1210/TK^−): 31000 ± 5000 nM; CC50 ([3]; Homo sapiens, HeLa): 20000 ± 11000 nM; IC50 ([3]; Homo sapiens, HeLa): 20000 ± 11000 nM; CC50 ([4]; Mus musculus, L1210/0, read-out: CC50 L1210): 387 nM; CC50 ([4]; Mus musculus, L1210/0, read-out: CC50 L1210/0): 350 ± 70 nM; IC50 ([4]; Mus musculus, L1210/0, read-out: IC50 L1210/0, Table 6): 350 ± 70 nM; IC50 ([4]; Mus musculus, L1210/0, read-out: IC50 L1210/0, Table 7): 350 ± 22 nM; CC50 ([5]; Homo sapiens, CCRF-CEM): 980 ± 400 nM; IC50 ([5]; Homo sapiens, CCRF-CEM): 980 ± 400 nM; CC50 ([6]; Homo sapiens, HeLa): 1100 ± 400 nM; IC50 ([6]; Homo sapiens, HeLa): 1100 ± 400 nM; CC50 ([7]; Homo sapiens, CEM-TK(-)): 28000 ± 8000 nM; IC50 ([7]; Homo sapiens, CEM-TK(-)): 28000 ± 8000 nM
10 | CCCCCOC(=O)C(C)(C)NP(=O)(OCC1OC(n2cc(F)c(=O)[nH]c2=O)CC1O)Oc1cccc2ccccc12 (stereo not drawn) [Nap Pnt DMG] | 300 ± 130 | 0.42 | 19 ± 2.8 | 2300 ± 100 | 37 ± 10 | 45 ± 2.1 | 140 | 120 ± 30 | 5400 ± 1100 |  |  |  |  |  |  |  |  |  |  |  | 
11 | CCCCCOC(=O)C(CCSC)NP(=O)(OCC1OC(n2cc(F)c(=O)[nH]c2=O)CC1O)Oc1ccccc1 (stereo not drawn) [Ph Pnt Met] | 2200 ± 500 | 3.2 | 410 ± 210 | 7100 ± 1200 | 110 ± 60 | 130 ± 7.8 | 350 ± 130 | 150 | 13000 ± 1000 |  |  |  |  |  |  |  |  |  |  |  | 
12 | CCCCCOC(=O)[C@H](C)NP(=O)(OC[C@H]1O[C@@H](n2cc(F)c(=O)[nH]c2=O)CC1O)Oc1cccc2ccccc12 (stereo partly drawn) [CPF 581, 5-Fluoro-2′-deoxyuridine-5′-O-[1-naphthyl-(pentoxy-L-alaninyl)] phosphate] |  | 2.9 |  |  |  |  |  |  |  | 22 | 130 ± 130 | 130 ± 130 | 17 | 6 ± 1.4 | 440 ± 350 | 440 ± 350 | 2.8 ± 1 | 3.7 | 2.8 ± 1 | 2.1 ± 0.07 | CC50 [5, 20]: 15 ± 6 nM; IC50 [5, 21]: 15 ± 6 nM; CC50 ([6]; Homo sapiens, HeLa, Table 1): 29 ± 23 nM; IC50 ([6]; Homo sapiens, HeLa, Table 6): 29 ± 23 nM; CC50 [7, 22]: 280 ± 40 nM; IC50 [7, 23]: 280 ± 40 nM
